Laboratory results taken from PubChem BioAssay (NCI).
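Results reflect a 48-hour exposure of cells in 96-well plates to compound at five concentrations. TGI denotes the concentration required for complete inhibition of growth.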

What was measured:
Assay in all cases: DTP human tumour cell line panel, 48 h
A549 NSCLC = tested on: A549 NSCLC
ACHN renal = tested on: ACHN renal
HOP-92 NSCLC = tested on: HOP-92 NSCLC
KM12 colon = tested on: KM12 colon
M14 melanoma = tested on: M14 melanoma
MDA-MB-231 breast = tested on: MDA-MB-231 breast
MDA-N = tested on: MDA-N
NCI-H23 lung = tested on: NCI-H23 lung
OVCAR-4 ovarian = tested on: OVCAR-4 ovarian
OVCAR-8 ovarian = tested on: OVCAR-8 ovarian
PC-3 prostate = tested on: PC-3 prostate
RPMI-8226 leukemia = tested on: RPMI-8226 leukemia
SK-MEL-2 melanoma = tested on: SK-MEL-2 melanoma
SW-620 colon = tested on: SW-620 colon

Row | Structure (SMILES) | TGI (A549 NSCLC) [µM] | TGI (ACHN renal) [µM] | TGI (HOP-92 NSCLC) [µM] | TGI (KM12 colon) [µM] | TGI (M14 melanoma) [µM] | TGI (MDA-MB-231 breast) [µM] | TGI (MDA-N) [µM] | TGI (NCI-H23 lung) [µM] | TGI (OVCAR-4 ovarian) [µM] | TGI (OVCAR-8 ovarian) [µM] | TGI (PC-3 prostate) [µM] | TGI (RPMI-8226 leukemia) [µM] | TGI (SK-MEL-2 melanoma) [µM] | TGI (SW-620 colon) [µM]
1 | CN(O)C(=O)c1ccc(OCc2cccc(Cl)c2)cc1 | > 100 | > 68.3 | > 100 | > 100 | > 50 | > 100 | > 100 | > 100 | > 100 | > 95.9 | > 100 | > 100 | > 100 | > 100
2 | CN(C)c1ccc(/C=C(\NC(=O)c2ccccc2)c2nc3ccccc3c(=O)o2)cc1 | > 100 | > 100 | > 100 | > 100 | > 100 | > 100 | > 100 | > 100 | > 100 | > 100 | > 100 | > 100 | > 100 | > 100
3 | COc1ccccc1-c1n[nH]c(-c2ccccc2O)n1 | > 100 | > 100 | > 100 | > 100 | > 100 | > 100 | > 100 | > 100 | > 100 | > 100 | > 100 | > 100 | > 100 | > 100
4 | CC(C)(C)c1cc(C(C)(C)C)c(P=C(Cl)Cl)c(C(C)(C)C)c1 (centres undefined) | > 100 | > 100 | > 100 | > 100 | > 100 | > 100 | > 100 | > 100 | > 100 | > 100 | > 100 | > 100 | > 100 | > 100
5 | Nc1ccc2c(c1)N(C(=O)CCCC(=O)N1CC(CCl)c3ccc(N)cc31)CC2CCl (centres undefined) | > 50 | > 41 | > 50 | 3.99 | 4.7 | 8.76 | 3.82 | 4.16 | > 11.1 | > 11.2 | 16.4 | > 10.2 | 1.43 | > 50
6 | Nc1c(O)c2c(c(O)c1Cl)C(=O)C=CC2=O | 5.68 | 18.8 | 31.3 | 13.3 | 6.08 | 19.7 | 3.24 | 4.89 | 16.2 | 14 | 14.8 | 44.8 | 23.8 | 9.93
7 | COc1ccc(/C=C/C(=O)c2cccc(C(=O)/C=C/c3ccc(OC)c(OC)c3)n2)cc1OC | > 100 | > 100 | > 100 | > 100 | > 79.8 | 70.6 | 34.8 | > 100 | > 100 | 18.3 | > 100 | > 22.6 | > 100 | 15.9
8 | Cc1cccc(/C=N/NC(=S)NC2CCCCC2)n1 | > 88.9 | > 85.2 | 61.8 | > 100 | 61.6 | > 100 | > 93.1 | > 100 | > 100 | > 69 | > 100 | 45.4 | > 100 | > 100
9 | COC(=O)C1=C(O)C(C(=O)OC)[C@]2(O)[C@H](C(=O)OC)[C@H]1C[C@@H](c1ccc(Cl)cc1Cl)[C@H]2C(=O)OC (some centres undefined) | 24.5 | 42.4 | 23.8 | 32.9 | 19.1 | 60 | 11 | 19.1 | 67.6 | 18 | 23.5 | 7.74 | 20.3 | 57
10 | COC(=O)C1=C(C(=O)OC)C2(c3ccccc3)c3ccccc3C(=O)C1N2C1CCCCC1 (centres undefined) | > 100 | > 100 | > 100 | > 100 | > 100 | > 100 | > 100 | > 100 | > 100 | > 100 | > 100 | 40.6 | > 100 | > 100
11 | N#CCN(Cc1ccccc1)[C@H]1CCC[C@]1(O)/C=C/c1ccc2c(c1)OCO2 | > 100 | > 100 | 60.9 | 45.3 | 30.2 | 71.5 | 35.7 | 69.2 | > 100 | 32.5 | 35.7 | 46 | 42.8 | 43.3
12 | CC1(C)C2CC1C(/C=N\OCC(=O)O)=CC2=O (centres undefined) | > 100 | > 100 | > 100 | > 100 | > 100 | > 100 | > 100 | > 100 | > 100 | > 100 | > 100 | > 100 | > 100 | > 100
13 | CN(C)Cc1cc(N=Nc2c(Cl)cccc2Cl)ccc1O | > 100 | > 100 | > 100 | > 100 |  | > 100 | > 100 | > 100 | > 100 | > 100 | > 100 | > 100 | > 100 | > 100
14 | CCCCCCCCCCCCOCCCCCCCCC/C=C/c1ccc2c(c1)OCCOCCOCCOCCO2 | 36.6 | 43.1 | 26.5 | 31.1 | 88.9 | 37.7 | 36.2 | 30.9 | 45.1 | 25.5 | 39.9 | 64.5 | 30.2 | > 100
15 | COc1ccc(/C=C/C(=N/NC(=O)N/N=C(/C=C/c2ccc(OC)cc2)C(C)C)C(C)C)cc1 | > 100 | > 100 | > 100 | > 100 | > 100 | > 100 | > 100 | > 100 | > 100 | > 100 | > 100 | > 100 | > 100 | > 100
